#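 Results reflect a 48-hour exposure of cells in 96-well plates to compound at five concentrations. The concentration for full growth arrest is given as TGI.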
# Columns and labels:
# Experiment in all cases: NCI tumour cell line growth inhibition, 48 h
# A498 renal = tested on: A498 renal
# A549 NSCLC = tested on: A549 NSCLC
# CAKI-1 renal = tested on: CAKI-1 renal
# COLO 205 colon = tested on: COLO 205 colon
# DLD-1 colon = tested on: DLD-1 colon
# DMS 114 small cell lung = tested on: DMS 114 small cell lung
# DMS 273 small cell lung = tested on: DMS 273 small cell lung
# EKVX NSCLC = tested on: EKVX NSCLC
# HCC-2998 colon = tested on: HCC-2998 colon
# HCT-116 colon = tested on: HCT-116 colon
# HCT-15 colon = tested on: HCT-15 colon
# HL-60(TB) leukemia = tested on: HL-60(TB) leukemia
# HOP-18 NSCLC = tested on: HOP-18 NSCLC
# HOP-62 NSCLC = tested on: HOP-62 NSCLC
# HOP-92 NSCLC = tested on: HOP-92 NSCLC
# HT29 colon = tested on: HT29 colon
# IGROV1 ovarian = tested on: IGROV1 ovarian
# K-562 leukemia = tested on: K-562 leukemia
# KM12 colon = tested on: KM12 colon
# KM20L2 colon = tested on: KM20L2 colon
# LOX IMVI melanoma = tested on: LOX IMVI melanoma
# M19-MEL melanoma = tested on: M19-MEL melanoma
# MALME-3M melanoma = tested on: MALME-3M melanoma
# MCF7 breast = tested on: MCF7 breast
# MOLT-4 leukemia = tested on: MOLT-4 leukemia
# NCI-H226 lung = tested on: NCI-H226 lung
# NCI-H23 lung = tested on: NCI-H23 lung
# NCI-H460 lung = tested on: NCI-H460 lung
# NCI-H522 lung = tested on: NCI-H522 lung
# NCI/ADR-RES ovarian = tested on: NCI/ADR-RES ovarian
# OVCAR-3 ovarian = tested on: OVCAR-3 ovarian
# OVCAR-4 ovarian = tested on: OVCAR-4 ovarian
# OVCAR-5 ovarian = tested on: OVCAR-5 ovarian
# OVCAR-8 ovarian = tested on: OVCAR-8 ovarian
# P388 leukemia = tested on: P388 leukemia
# P388/ADR leukemia = tested on: P388/ADR leukemia
# RPMI-8226 leukemia = tested on: RPMI-8226 leukemia
# RXF 393 renal = tested on: RXF 393 renal
# SF-268 CNS = tested on: SF-268 CNS
# SF-295 CNS = tested on: SF-295 CNS
# SF-539 CNS = tested on: SF-539 CNS
# SK-MEL-2 melanoma = tested on: SK-MEL-2 melanoma
# SK-MEL-28 melanoma = tested on: SK-MEL-28 melanoma
# SK-MEL-5 melanoma = tested on: SK-MEL-5 melanoma
# SK-OV-3 ovarian = tested on: SK-OV-3 ovarian
# SN12C renal = tested on: SN12C renal
# SN12K1 renal = tested on: SN12K1 renal
# SNB-19 CNS = tested on: SNB-19 CNS
# SNB-75 CNS = tested on: SNB-75 CNS
# SNB-78 CNS = tested on: SNB-78 CNS
# SW-620 colon = tested on: SW-620 colon
# U251 CNS = tested on: U251 CNS
# UACC-257 melanoma = tested on: UACC-257 melanoma
# UACC-62 melanoma = tested on: UACC-62 melanoma
# UO-31 renal = tested on: UO-31 renal
# XF 498 CNS = tested on: XF 498 CNS
compound,measurement,setting,value
C#CC[N+](CCO)(CCO)CCCCCCCCCCCCCCCCCC,TGI,A498 renal,37.8 µM
same,TGI,A549 NSCLC,36.5 µM
same,TGI,CAKI-1 renal,15.9 µM
same,TGI,COLO 205 colon,27.1 µM
same,TGI,DLD-1 colon,24.5 µM
same,TGI,DMS 114 small cell lung,33 µM
same,TGI,DMS 273 small cell lung,22.6 µM
same,TGI,EKVX NSCLC,51.1 µM
same,TGI,HCC-2998 colon,23.7 µM
same,TGI,HCT-116 colon,27.4 µM
same,TGI,HCT-15 colon,50.8 µM
same,TGI,HL-60(TB) leukemia,3.43 µM
same,TGI,HOP-18 NSCLC,22.1 µM
same,TGI,HOP-62 NSCLC,25.5 µM
same,TGI,HOP-92 NSCLC,5.2 µM
same,TGI,HT29 colon,20.1 µM
same,TGI,IGROV1 ovarian,5.13 µM
same,TGI,K-562 leukemia,> 41.2 µM
same,TGI,KM12 colon,8.97 µM
same,TGI,KM20L2 colon,25.8 µM
same,TGI,LOX IMVI melanoma,> 48.3 µM
same,TGI,M19-MEL melanoma,15 µM
same,TGI,MALME-3M melanoma,32.3 µM
same,TGI,MCF7 breast,36.5 µM
same,TGI,MOLT-4 leukemia,9.7 µM
same,TGI,NCI-H226 lung,29.2 µM
same,TGI,NCI-H23 lung,30.1 µM
same,TGI,NCI-H460 lung,27.9 µM
same,TGI,NCI-H522 lung,21.7 µM
same,TGI,NCI/ADR-RES ovarian,39.5 µM
same,TGI,OVCAR-3 ovarian,35.9 µM
same,TGI,OVCAR-4 ovarian,25 µM
same,TGI,OVCAR-5 ovarian,32.5 µM
same,TGI,OVCAR-8 ovarian,43.1 µM
same,TGI,P388 leukemia,2.5 µM
same,TGI,P388/ADR leukemia,> 43.7 µM
same,TGI,RPMI-8226 leukemia,> 29 µM
same,TGI,RXF 393 renal,6.64 µM
same,TGI,SF-268 CNS,26.2 µM
same,TGI,SF-295 CNS,24.1 µM
same,TGI,SF-539 CNS,30.2 µM
same,TGI,SK-MEL-2 melanoma,31.8 µM
same,TGI,SK-MEL-28 melanoma,30.6 µM
same,TGI,SK-MEL-5 melanoma,32.1 µM
same,TGI,SK-OV-3 ovarian,36.1 µM
same,TGI,SN12C renal,39.3 µM
same,TGI,SN12K1 renal,30 µM
same,TGI,SNB-19 CNS,20.7 µM
same,TGI,SNB-75 CNS,15.9 µM
same,TGI,SNB-78 CNS,28.4 µM
same,TGI,SW-620 colon,34.9 µM
same,TGI,U251 CNS,27.5 µM
same,TGI,UACC-257 melanoma,31 µM
same,TGI,UACC-62 melanoma,25.4 µM
same,TGI,UO-31 renal,34.9 µM
same,TGI,XF 498 CNS,17.3 µM
